Experimental data as given in patent US20190276376A1, “CAPSULES COMPRISING BENZYLPROPARGYLETHERS FOR USE AS NITRIFICATION INHIBITORS” (BASF SE, priority 2016, published 2019).

Legend:
[1] = Vapor pressure by thermogravimetry; assay type: physicochemical; details: at 20° C.; Mettler Toledo STAR thermogravimeter
Protocol: The vapor pressure can be determined by thermogravimetry by methods known in the art. In the context of the present invention, a Mettler Toledo STAR thermogravimeter with 5 mg sample on a glass plate may be used. As a reference compound, 3,4-dimethyl pyrazole (DMP) was inter alia measured and a vapor pressure of 3.7 Pa at 20° C. was determined.

N2O emissions = N2O emissions from potted lettuce in greenhouse soil, gas chamber sampling, GC-ECD; assay type: in vivo, Green head lettuce; details: total cumulated N2O emissions, % inhibition compared to control; greenhouse 20° C., 60% humidity
Protocol: Green head lettuce was seeded in seedling boxes. Once the 4 leaf stage was reached one plant was potted into a 8 cm pot in standard greenhouse soil (mixture of peat, loam and sand) and grown in the greenhouse at 20° C. and 60% humidity. One week after planting the plants, the pots were separated out and each pot set onto a plant saucer designed with an inner compartment for the pot and an outer ring that is filled with water. At time 0, water with or without various concentrations of fertilizer and with either empty formulation or formulated capsule suspensions was applied to the plant such that the water holding capacity of the soil was around 50%. Then a gas sampling chamber was placed over the plant saucer such that the rim fit into the ring filled with water to create a gas-tight chamber and 20 cc air from the chamber were drawn into a syringe and immediately emptied in to a Vacutainer (Labco, 12 ml volume). This equals the Time Zero measurement for each pot. The same procedure was performed with all pots in the experiment. After incubation time of 1 h, again 20 cc air samples were taken from the gas chambers and emptied into Vacutainers as described above. […]
Samples were analyzed in a Shimadzu 2014 GC equipped with an ECD system. Total cumulated N2O emissions were calculated and related by calculating the % inhibition compared to control.

Row | vapor pressure [1] | Compound | Inhibition (%) N2O emissions (N2O emissions)
1 | 3.7 Pa | Cc1cn[nH]c1C [3,4-dimethyl pyrazole (DMP), 3,4-dimethyl pyrazole] | 
2 |  | C#CCOCc1ccc(Cl)cc1 [Example A-10] | 25%
